Series [1] addresses T1, human recombinant OX2 (hOX2) receptors expressed in CHO cells (Homo sapiens, UniProt O43614).
T1 construct: host or cells: CHO cells (hOX2-CHO)
T1 sequence (O43614 1-444): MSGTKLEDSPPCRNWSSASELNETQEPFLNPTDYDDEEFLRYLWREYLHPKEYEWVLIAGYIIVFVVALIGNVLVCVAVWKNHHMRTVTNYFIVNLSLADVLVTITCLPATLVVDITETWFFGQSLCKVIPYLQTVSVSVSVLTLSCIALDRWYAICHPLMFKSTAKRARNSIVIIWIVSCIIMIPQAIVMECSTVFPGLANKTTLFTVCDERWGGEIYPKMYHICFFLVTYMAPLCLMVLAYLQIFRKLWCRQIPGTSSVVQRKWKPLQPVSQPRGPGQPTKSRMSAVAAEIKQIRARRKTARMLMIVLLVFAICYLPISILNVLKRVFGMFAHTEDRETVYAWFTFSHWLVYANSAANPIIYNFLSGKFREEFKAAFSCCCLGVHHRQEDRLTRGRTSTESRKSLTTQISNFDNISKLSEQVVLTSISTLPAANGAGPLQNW
Kind of series: IP-1 accumulation assay (IP-One HTRF) in hOX2-CHO cells. The class given is cell-based. As to conditions: 60 min incubation at 37° C., mean of at least two independent experiments, read-out: EC50_OX2R Category. Put shortly: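 CHO cells in suspension in HBSS/20 mM HEPES pH 7.4 with 50 mM LiCl and 0.1% BSA, given compound (11-point series, 0.5% DMSO) for 60 min at 37 °C. IP-1 read by HTRF ratio, scaled to maximal OX-A response; EC50 from four-parameter fit, mean of ≥2 experiments.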

Like-named read-outs stand apart in the source and are kept apart here.

Regarding `C[C@@H]1CC2(COCC(=O)N2)C2Cc3cccc(c3F)-c3ccccc3OCCC(=O)N21` (mixture of isomers) [Example 26, (13′R)-22′-fluoro-13′-methyl-8′-oxa-12′-azaspiro[morpholine-3,15′-tetracyclo[16.3.1.0^2,70.0^12,16]docosane]-1′(22′),2′(7′),3′,5′,18′,20′-hexaene-5,11′-dione], in series [1], the EC50 fell in the range of 1000 to 10000 nM. Besides, the ring closure, yield of all isomers (from C[C@@H]1CC2(COCC(=O)N2)C(Cc2cccc(-c3ccccc3OCCC(=O)O)c2F)N1, amide bond, HATU, DIPEA, acetonitrile, 0.84 mM, 25.0 °C, 2.5 h) worked out at 2.4%.

In the case of `Cc1ccnc2c1[C@H]1CC[C@H](CC1)OCC1N(CCCC13COCC(=O)N3)C(=O)CO2` (some centres unmarked) [Example 77, (1′s,19′s)-3′-methyl-8′,18′-dioxa-6′,11′-diazaspiro[morpholine-3,15′-tetracyclo[17.2.2.0^2,70.0^11,16]tricosane]-2′,4′,6′-triene-5,10′-dione], the EC50 in series [1] is less than 100 nM. Where the note is “from Cc1ccnc(O)c1[C@H]1CC[C@@H](OCC2N(C(=O)CCl)CCCC23COCC(=O)N3)CC1, ether bond, K2CO3, acetonitrile, 2.06 mM, 90.0 °C, 12.0 h”, the ring closure, yield of all isomers was 9.4%.

As to `C[C@@H]1C[C@@]2(COCC(=O)N2)[C@@H]2CO[C@H]3CC[C@H](CC3)c3c(F)cccc3OCC(=O)N12` (single isomer, unassigned) [Example 17a], in series [1], the EC50 was less than 100 nM. This compound returned a ring closure, yield of all isomers (from C[C@@H]1CC2(COCC(=O)N2)C(CO[C@H]2CC[C@@H](c3c(F)cccc3OCC(=O)O)CC2)N1, amide bond, HATU, DIPEA, acetonitrile, 19.2 mM, 3.0 h) of 9%.

As for `C[C@@H]1CC2(COCC(=O)N2)C2Cc3cccc(c3F)-c3ccccc3OCCCC(=O)N21` (mixture of isomers) [Example 27, (14′R)-23′-fluoro-14′-methyl-8′-oxa-13′-azaspiro[morpholine-3,16′-tetracyclo[17.3.1.0^2,70.0^13,17]tricosane]-1′(23′),2′(7′),3′,5′,19′,21′-hexaene-5, 12′-dione], the EC50 in series [1] is 100 to 1000 nM. Further, under “from C[C@@H]1CC2(COCC(=O)N2)C(Cc2cccc(-c3ccccc3OCCCC(=O)O)c2F)N1, amide bond, HATU, MeCN, 2.3 mM, 25.0 °C, 2.5 h”, the ring closure, yield of all isomers came out at 84.9%.

The record behind these values is US20250320227A1, “MACROCYCLIC OREXIN RECEPTOR AGONISTS AND USES THEREOF” (Jazz Pharmaceuticals Ireland Limited, priority 2022, published 2025).
